Broadly, the EC50 is the concentration needed to bring the measured effect to its halfway point. By Ki is commonly meant a measure of affinity in units of concentration, obtained from inhibition or displacement.

Results on three molecules are retold here after ChEMBL document CHEMBL4665916, “Human Insulin-like Peptide 5 (INSL5). Identification of a Simplified Version of Two-Chain Analog A13” (ACS Med Chem Lett, 2020).

Experiment [1] deals with T1, Relaxin-3 receptor 2 (Homo sapiens, UniProt Q8TDU9). The experiment in a line: Agonist activity at human RXFP4 transfected in CHO-K1 cells co-transfected with pCRE-beta-galactosidase reporter plasmid assessed as inhibition of forskolin-induced cAMP accumulation measured after 6 hrs by beta-galactosidase reporter gene assay. It is filed as functional, cell-based.
T1 sequence (Q8TDU9 whole entry): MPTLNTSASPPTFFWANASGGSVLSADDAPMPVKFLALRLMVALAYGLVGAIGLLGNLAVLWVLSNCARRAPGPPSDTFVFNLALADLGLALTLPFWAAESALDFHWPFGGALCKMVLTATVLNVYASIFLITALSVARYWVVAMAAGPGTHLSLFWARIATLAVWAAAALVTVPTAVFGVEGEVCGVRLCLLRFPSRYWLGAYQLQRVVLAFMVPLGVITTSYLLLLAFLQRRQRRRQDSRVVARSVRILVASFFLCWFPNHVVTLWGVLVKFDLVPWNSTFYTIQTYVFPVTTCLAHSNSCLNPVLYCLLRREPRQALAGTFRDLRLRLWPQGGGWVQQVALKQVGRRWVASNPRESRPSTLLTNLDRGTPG
Experiment [2] addresses T1, Relaxin-3 receptor 2. The experiment in a line: Competitive binding affinity to human RXFP4 receptor transfected in CHO-K1 cells in presence of europium-labeled Eu(A)-R3/I5 by fluorometric analysis. It is filed as cell-based.

Bridge positions count the residues as written; N and C are the ends. Peptide text beside a SMILES is read from it. I, II: the chains in the order shown.

As for `CC[C@H](C)[C@@H]1NC(=O)[C@H](Cc2ccc(O)cc2)NC(=O)[C@H]([C@@H](C)CC)NC(=O)[C@H](C(C)C)NC(=O)[C@H]([C@@H](C)O)NC(=O)[C@H](CCCNC(=N)N)NC(=O)[C@H]([C@@H](C)CC)NC(=O)[C@H](Cc2ccc(O)cc2)NC(=O)[C@H](CCC(=O)O)NC(=O)[C@H](CC(C)C)NC(=O)CNC(=O)[C@@H](N)CSSC[C@H](N)C(=O)N[C@@H]([C@@H](C)O)C(=O)N[C@@H](CC(=O)O)C(=O)NCC(=O)N[C@@H](C)C(=O)N[C@@H](CO)C(=O)N[C@@H](CCSC)C(=O)N[C@@H](CCCCN)C(=O)N[C@@H](CC(=O)O)C(=O)N[C@@H](CC(C)C)C(=O)N[C@@H](CO)C(=O)N[C@@H](C)C(=O)N[C@@H](CC(C)C)C(=O)N[C@H](C(=O)O)CSSC[C@@H](C(=O)N[C@@H](C)C(=O)N[C@@H](CO)C(=O)N[C@@H](CO)C(=O)N[C@@H](CCCNC(=N)N)C(=O)N[C@@H](Cc2c[nH]c3ccccc23)C(=O)O)NC1=O` (I: H-CGLEYIRTVIYICASSRW-OH / II: H-CTDGASMKDLSALC-OH; disulfide I:1-II:1, I:13-II:14), the EC50 on Relaxin-3 receptor 2 [1] was 0.00832 µM.

In the case of `CC[C@H](C)[C@@H]1NC(=O)[C@H](Cc2ccc(O)cc2)NC(=O)[C@H]([C@@H](C)CC)NC(=O)[C@H](C(C)C)NC(=O)[C@H]([C@@H](C)O)NC(=O)[C@H](CCCNC(=N)N)NC(=O)[C@H]([C@@H](C)CC)NC(=O)[C@H](Cc2ccc(O)cc2)NC(=O)[C@H](CCC(=O)O)NC(=O)[C@H](CC(C)C)NC(=O)CNC(=O)[C@@H](NC(=O)[C@H](CC(C)C)NC(=O)[C@@H](N)CCCNC(=N)N)CSSC[C@H](N)C(=O)N[C@@H]([C@@H](C)O)C(=O)N[C@@H](CC(=O)O)C(=O)NCC(=O)N[C@@H](C)C(=O)N[C@@H](CO)C(=O)N[C@@H](CCSC)C(=O)N[C@@H](CCCCN)C(=O)N[C@@H](CC(=O)O)C(=O)N[C@@H](CC(C)C)C(=O)N[C@@H](CO)C(=O)N[C@@H](C)C(=O)N[C@@H](CC(C)C)C(=O)N[C@H](C(=O)O)CSSC[C@@H](C(=O)N[C@@H](C)C(=O)N[C@@H](CO)C(=O)N[C@@H](CO)C(=O)N[C@@H](CCCNC(=N)N)C(=O)N[C@@H](Cc2c[nH]c3ccccc23)C(=O)O)NC1=O` (I: H-RLCGLEYIRTVIYICASSRW-OH / II: H-CTDGASMKDLSALC-OH; disulfide I:3-II:1, I:15-II:14), on Relaxin-3 receptor 2 [1], the EC50 was 0.0141 µM. Also, at Relaxin-3 receptor 2 [2], the Ki is 0.0501 µM.

On to `CC[C@H](C)[C@@H]1NC(=O)[C@H](Cc2ccc(O)cc2)NC(=O)[C@H]([C@@H](C)CC)NC(=O)[C@H](C(C)C)NC(=O)[C@H]([C@@H](C)O)NC(=O)[C@H](CCCNC(=N)N)NC(=O)[C@H]([C@@H](C)CC)NC(=O)[C@H](Cc2ccc(O)cc2)NC(=O)[C@H](CCC(=O)O)NC(=O)[C@H](CC(C)C)NC(=O)CNC(=O)[C@@H](NC(=O)[C@H](CC(C)C)NC(=O)[C@H](CCCNC(=N)N)NC(=O)[C@@H](NC(=O)[C@@H](N)CO)C(C)C)CSSC[C@H](N)C(=O)N[C@@H]([C@@H](C)O)C(=O)N[C@@H](CC(=O)O)C(=O)NCC(=O)N[C@@H](C)C(=O)N[C@@H](CO)C(=O)N[C@@H](CCSC)C(=O)N[C@@H](CCCCN)C(=O)N[C@@H](CC(=O)O)C(=O)N[C@@H](CC(C)C)C(=O)N[C@@H](CO)C(=O)N[C@@H](C)C(=O)N[C@@H](CC(C)C)C(=O)N[C@H](C(=O)O)CSSC[C@@H](C(=O)N[C@@H](C)C(=O)N[C@@H](CO)C(=O)N[C@@H](CO)C(=O)N[C@@H](CCCNC(=N)N)C(=O)N[C@@H](Cc2c[nH]c3ccccc23)C(=O)O)NC1=O` (I: H-SVRLCGLEYIRTVIYICASSRW-OH / II: H-CTDGASMKDLSALC-OH; disulfide I:5-II:1, I:17-II:14), for which the concentration giving a half-maximal response (EC50) at Relaxin-3 receptor 2 [1] is 0.011 µM. Also, the Ki on Relaxin-3 receptor 2 [2] is 0.0347 µM.
